Reference: the supplement of paper PMC10307832

How the values were obtained:
Test in all cases: relative viability (nuclei count vs DMSO), 5 days (fraction); higher = more cells survive
[1] = compound: C/C(=N\NC(=S)N1CCC1)/C2=CC=CC=N2 + C[C@@H](Oc1cc(-c2cnn(C3CCNCC3)c2)cnc1N)c1c(Cl)ccc(F)c1Cl [Crizotinib] (partner 1 µM)
Method in brief: (§1)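 After 5 days of treatment, lung cancer cells in 1536-well plates were fixed and stained in a single step (final 0.05% Triton X-100, 1% formaldehyde, 1 ug/ml Hoechst) and their nuclei counted on 4× images. Treatment had been applied by pin tool the day after seeding as one drug alone or as a fixed anchor-drug dose with five library-drug doses (not always all listed) in √10 steps. Relative viability is the nuclei count of treated wells divided by that of vehicle wells, and values are medians of duplicate plates.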

[2] = compound: C/C(=N\NC(=S)N1CCC1)/C2=CC=CC=N2 + Cc1cc(Nc2cc(N3CCN(C)CC3)nc(Sc3ccc(NC(=O)C4CC4)cc3)n2)n[nH]1 [Tozasertib] (partner 0.1 µM)
Method in brief: as §1

[3] = compound: C/C(=N\NC(=S)N1CCC1)/C2=CC=CC=N2 + Nc1ncn([C@H]2C[C@H](O)[C@@H](CO)O2)c(=O)n1 [Decitabine] (partner 2 µM)
Method in brief: as §1

[4] = compound: C/C(=N\NC(=S)N1CCC1)/C2=CC=CC=N2 + CS(=O)(=O)CCNCc1ccc(-c2ccc3ncnc(Nc4ccc(OCc5cccc(F)c5)c(Cl)c4)c3c2)o1 [Lapatinib] (partner 2 µM)
Method in brief: as §1

PC-14
relative viability ([1]; first compound 0.05 µM): 0.215 | relative viability ([1]; first compound 0.1581 µM): 0.11 | relative viability ([1]; first compound 0.5 µM): 0.0946 | relative viability ([1]; first compound 1.581 µM): 0.0983 | relative viability ([1]; first compound 5 µM): 0.0928 | relative viability ([2]; first compound 0.05 µM): 0.0506 | relative viability ([2]; first compound 0.1581 µM): 0.0536 | relative viability ([2]; first compound 0.5 µM): 0.0474 | relative viability ([2]; first compound 1.581 µM): 0.05 | relative viability ([2]; first compound 5 µM): 0.0386 | relative viability ([3]; first compound 0.05 µM): 0.0702 | relative viability ([3]; first compound 0.1581 µM): 0.088 | relative viability ([3]; first compound 0.5 µM): 0.0592 | relative viability ([3]; first compound 1.581 µM): 0.0503 | relative viability ([3]; first compound 5 µM): 0.0468 | relative viability ([4]; first compound 0.05 µM): 0.11 | relative viability ([4]; first compound 0.1581 µM): 0.112 | relative viability ([4]; first compound 0.5 µM): 0.124 | relative viability ([4]; first compound 1.581 µM): 0.0912 | relative viability ([4]; first compound 5 µM): 0.0865

RERF-LC-KJ
relative viability ([1]; first compound 0.05 µM): 0.224 | relative viability ([1]; first compound 0.1581 µM): 0.263 | relative viability ([1]; first compound 0.5 µM): 0.253 | relative viability ([1]; first compound 1.581 µM): 0.239 | relative viability ([1]; first compound 5 µM): 0.242 | relative viability ([2]; first compound 0.05 µM): 0.203 | relative viability ([2]; first compound 0.1581 µM): 0.208 | relative viability ([2]; first compound 0.5 µM): 0.246 | relative viability ([2]; first compound 1.581 µM): 0.217 | relative viability ([2]; first compound 5 µM): 0.242 | relative viability ([3]; first compound 0.05 µM): 0.234 | relative viability ([3]; first compound 0.1581 µM): 0.235 | relative viability ([3]; first compound 0.5 µM): 0.215 | relative viability ([3]; first compound 1.581 µM): 0.283 | relative viability ([3]; first compound 5 µM): 0.247 | relative viability ([4]; first compound 0.05 µM): 0.258 | relative viability ([4]; first compound 0.1581 µM): 0.263 | relative viability ([4]; first compound 0.5 µM): 0.23 | relative viability ([4]; first compound 1.581 µM): 0.253 | relative viability ([4]; first compound 5 µM): 0.275

SK-LU-1
relative viability ([1]; first compound 0.05 µM): 0.277 | relative viability ([1]; first compound 0.1581 µM): 0.191 | relative viability ([1]; first compound 0.5 µM): 0.203 | relative viability ([1]; first compound 1.581 µM): 0.19 | relative viability ([1]; first compound 5 µM): 0.208 | relative viability ([2]; first compound 0.05 µM): 0.141 | relative viability ([2]; first compound 0.1581 µM): 0.124 | relative viability ([2]; first compound 0.5 µM): 0.174 | relative viability ([2]; first compound 1.581 µM): 0.0952 | relative viability ([2]; first compound 5 µM): 0.136 | relative viability ([3]; first compound 0.05 µM): 0.274 | relative viability ([3]; first compound 0.1581 µM): 0.327 | relative viability ([3]; first compound 0.5 µM): 0.25 | relative viability ([3]; first compound 1.581 µM): 0.246 | relative viability ([3]; first compound 5 µM): 0.294 | relative viability ([4]; first compound 0.05 µM): 0.301 | relative viability ([4]; first compound 0.1581 µM): 0.149 | relative viability ([4]; first compound 0.5 µM): 0.14 | relative viability ([4]; first compound 1.581 µM): 0.142 | relative viability ([4]; first compound 5 µM): 0.204

SK-MES-1
relative viability ([1]; first compound 0.05 µM): 0.231 | relative viability ([1]; first compound 0.1581 µM): 0.214 | relative viability ([1]; first compound 0.5 µM): 0.179 | relative viability ([1]; first compound 1.581 µM): 0.167 | relative viability ([1]; first compound 5 µM): 0.177 | relative viability ([2]; first compound 0.05 µM): 0.22 | relative viability ([2]; first compound 0.1581 µM): 0.188 | relative viability ([2]; first compound 0.5 µM): 0.183 | relative viability ([2]; first compound 1.581 µM): 0.158 | relative viability ([2]; first compound 5 µM): 0.147 | relative viability ([3]; first compound 0.05 µM): 0.193 | relative viability ([3]; first compound 0.1581 µM): 0.186 | relative viability ([3]; first compound 0.5 µM): 0.171 | relative viability ([3]; first compound 1.581 µM): 0.142 | relative viability ([3]; first compound 5 µM): 0.19 | relative viability ([4]; first compound 0.05 µM): 0.301 | relative viability ([4]; first compound 0.1581 µM): 0.293 | relative viability ([4]; first compound 0.5 µM): 0.213 | relative viability ([4]; first compound 1.581 µM): 0.185 | relative viability ([4]; first compound 5 µM): 0.2

SW 1573
relative viability ([1]; first compound 0.05 µM): 0.11 | relative viability ([1]; first compound 0.1581 µM): 0.123 | relative viability ([1]; first compound 0.5 µM): 0.138 | relative viability ([1]; first compound 1.581 µM): 0.102 | relative viability ([1]; first compound 5 µM): 0.0709 | relative viability ([2]; first compound 0.05 µM): 0.0614 | relative viability ([2]; first compound 0.1581 µM): 0.0887 | relative viability ([2]; first compound 0.5 µM): 0.0999 | relative viability ([2]; first compound 1.581 µM): 0.0752 | relative viability ([2]; first compound 5 µM): 0.0626 | relative viability ([3]; first compound 0.05 µM): 0.0582 | relative viability ([3]; first compound 0.1581 µM): 0.119 | relative viability ([3]; first compound 0.5 µM): 0.111 | relative viability ([3]; first compound 1.581 µM): 0.0723 | relative viability ([3]; first compound 5 µM): 0.0647 | relative viability ([4]; first compound 0.05 µM): 0.164 | relative viability ([4]; first compound 0.1581 µM): 0.17 | relative viability ([4]; first compound 0.5 µM): 0.182 | relative viability ([4]; first compound 1.581 µM): 0.118 | relative viability ([4]; first compound 5 µM): 0.109

UMC-11
relative viability ([1]; first compound 0.05 µM): 0.181 | relative viability ([1]; first compound 0.1581 µM): 0.115 | relative viability ([1]; first compound 0.5 µM): 0.128 | relative viability ([1]; first compound 1.581 µM): 0.101 | relative viability ([1]; first compound 5 µM): 0.0892 | relative viability ([2]; first compound 0.05 µM): 0.196 | relative viability ([2]; first compound 0.1581 µM): 0.177 | relative viability ([2]; first compound 0.5 µM): 0.196 | relative viability ([2]; first compound 1.581 µM): 0.192 | relative viability ([2]; first compound 5 µM): 0.185 | relative viability ([3]; first compound 0.05 µM): 0.446 | relative viability ([3]; first compound 0.1581 µM): 0.2 | relative viability ([3]; first compound 0.5 µM): 0.261 | relative viability ([3]; first compound 1.581 µM): 0.273 | relative viability ([3]; first compound 5 µM): 0.2 | relative viability ([4]; first compound 0.05 µM): 0.201 | relative viability ([4]; first compound 0.1581 µM): 0.195 | relative viability ([4]; first compound 0.5 µM): 0.165 | relative viability ([4]; first compound 1.581 µM): 0.145 | relative viability ([4]; first compound 5 µM): 0.134
